Results taken from the supplement of paper PMC10331698.
± gives the standard deviation of the averaged measurements.

Experiments:
Test in all cases: level (log10 ratio to DMSO vehicle control); higher = higher biomarker level / cell amount than vehicle control
Conditions in all cases: in DMSO
[1] = compound: C=C(C)C(=O)OCC(F)(F)C(F)(F)C(F)(F)C(F)(F)C(F)(F)C(F)(F)C(F)(F)F
Description: (§1)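 BioMAP Diversity Plus panel of 12 human primary cell co-culture systems (3C, 4H, LPS, SAg, BT, BF4T, BE3C, CASM3C, HDF3CGF, KF3CT, MyoF, Mphg). Compounds were added 1 h before stimulation and left for 24 h (MyoF 48 h; BT 72 h for soluble read-outs or 6 d for IgG). Biomarkers were read by ELISA, cytotoxicity by SRB, PBMC viability and proliferation by Alamar Blue. Each well value was divided by the mean of 8 DMSO control wells on the same plate and log10 transformed; duplicate blinded samples were tested at 4 concentrations.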

[2] = compound: CNS(=O)(=O)C(F)(F)C(F)(F)C(F)(F)C(F)(F)C(F)(F)C(F)(F)C(F)(F)C(F)(F)F [N-Methylperfluorooctanesulfonamide]
Description: as §1

[3] = compound: FC(F)(F)C(F)(F)C(F)(F)C(F)(F)C(F)(F)C(F)(F)C(F)(F)CCI [1-Iodo-1H,1H,2H,2H-perfluorononane]
Description: as §1

[4] = compound: O=C(O)C(F)(F)C(F)(F)C(F)(F)C(F)(F)C(F)(F)C(F)(F)C(F)(F)C(F)(F)C(F)(F)C(F)(F)C(F)(F)C(F)(F)C(F)(F)F [Perfluorotetradecanoic acid]
Description: as §1

[5] = compound: O=C(O)C(F)(F)OC(F)(F)C(F)(F)OC(F)(F)C(F)(F)C(F)(F)C(F)(F)F [Perfluoro-3,6-dioxadecanoic acid]
Description: as §1

[6] = compound: O=C(O)CCC(F)(F)C(F)(F)C(F)(F)C(F)(F)C(F)(F)F [2H,2H,3H,3H-Perfluorooctanoic acid]
Description: as §1

[7] = compound: OCC(F)(F)C(F)(F)C(F)(F)C(F)(F)C(F)(F)C(F)F [1H,1H,7H-Dodecafluoro-1-heptanol]
Description: as §1

Test System | level (log10) ([1]; 6700 nM) | level (log10) ([1]; 20000 nM) | level (log10) ([2]; 6700 nM) | level (log10) ([2]; 20000 nM) | level (log10) ([2]; 60000 nM) | level (log10) ([3]; 6700 nM) | level (log10) ([3]; 20000 nM) | level (log10) ([4]; 6700 nM) | level (log10) ([4]; 20000 nM) | level (log10) ([5]; 6700 nM) | level (log10) ([5]; 20000 nM) | level (log10) ([5]; 60000 nM) | level (log10) ([6]; 6700 nM) | level (log10) ([6]; 20000 nM) | level (log10) ([6]; 60000 nM) | level (log10) ([7]; 6700 nM) | level (log10) ([7]; 20000 nM) | level (log10) ([7]; 60000 nM)
BE3C:CD87/uPAR | 0.0015 ± 0.016 | -0.004 ± 0.023 | 0.0125 ± 0.015 | 0.0575 ± 0.061 | 0.083 ± 0.011 | 0.0115 ± 0.018 | 0.016 ± 0.0014 | 0.015 ± 0.034 | 0.065 ± 0.05 | 0.018 ± 0.0014 | 0.0455 ± 0.025 | 0.102 ± 0.0099 | -0.0085 ± 0.0064 | 0.005 ± 0.033 | 0.0255 ± 0.037 | 0.018 ± 0.033 | 0.011 ± 0.0028 | 0.013 ± 0.011
BE3C:CXCL8/IL-8 | 0.011 ± 0.024 | 0.0275 ± 0.015 | -0.112 ± 0.0021 | -0.118 ± 0.0042 | -0.2 ± 0.078 | 0.018 ± 0.11 | 0.0505 ± 0.12 | -0.005 ± 0.055 | 0.0365 ± 0.052 | 0.0135 ± 0.016 | 0.0065 ± 0.019 | -0.0965 ± 0.0092 | 0.033 ± 0.042 | 0.004 ± 0.041 | 0.0035 ± 0.036 | 0.0245 ± 0.053 | 0.0005 ± 0.032 | -0.009 ± 0.014
BE3C:CXCL9/MIG | 0.0015 ± 0.00071 | -0.0085 ± 0.0035 | 0.0125 ± 0.016 | 0.009 ± 0.018 | 0.021 ± 0.028 | -0.0085 ± 0.0035 | -0.0015 ± 0.0092 | -0.016 ± 0.02 | -0.006 ± 0.017 | -0.0045 ± 0.011 | -0.011 ± 0.017 | -0.012 ± 0.0057 | -0.003 | -0.008 ± 0.0057 | 0.0005 ± 0.0035 | 0.0135 ± 0.0021 | 0.003 ± 0.014 | 0.0115 ± 0.013
BE3C:CXCL10/IP-10 | 0.0135 ± 0.018 | -0.004 ± 0.014 | -0.0415 ± 0.026 | -0.0475 ± 0.0064 | -0.0795 ± 0.049 | 0 ± 0.016 | 0.0025 ± 0.011 | 0.008 ± 0.0042 | -0.0275 ± 0.019 | -0.0415 ± 0.025 | -0.0795 ± 0.033 | -0.626 ± 0.02 | -0.009 ± 0.0042 | -0.006 ± 0.0028 | -0.0075 ± 0.005 | 0.0055 ± 0.028 | 0.004 ± 0.021 | 0.0125 ± 0.012
BE3C:CXCL11/I-TAC | -0.0085 ± 0.016 | -0.0095 ± 0.0021 | -0.03 ± 0.0099 | -0.0165 ± 0.018 | -0.043 ± 0.0028 | -0.004 ± 0.0057 | -0.001 ± 0.0042 | -0.073 ± 0.052 | -0.0135 ± 0.071 | 0.0945 ± 0.00071 | 0.124 ± 0.011 | 0.0095 ± 0.022 | 0.0305 ± 0.016 | 0.0535 ± 0.012 | 0.036 ± 0.014 | 0.003 ± 0.02 | 0.0115 ± 0.012 | 0.007 ± 0.021
BE3C:EGFR | -0.0175 ± 0.011 | -0.0295 ± 0.011 | 0.001 ± 0.0057 | -0.0005 ± 0.0064 | -0.0305 ± 0.026 | 0.005 ± 0.014 | -0.008 ± 0.02 | 0.01 ± 0.014 | 0.0145 ± 0.044 | -0.02 ± 0.02 | -0.0485 ± 0.019 | -0.122 ± 0.0092 | -0.004 ± 0.0042 | -0.0225 ± 0.029 | -0.008 ± 0.0099 | 0.0125 ± 0.0092 | -0.0005 ± 0.0092 | 0.0095 ± 0.0021
BE3C:HLA-DR | 0.008 ± 0.0085 | 0.001 ± 0.013 | -0.0225 ± 0.0064 | -0.0445 ± 0.012 | -0.039 ± 0.041 | -0.0065 ± 0.0035 | -0.0225 ± 0.0092 | -0.013 ± 0.041 | -0.0135 ± 0.06 | -0.038 ± 0.021 | -0.08 ± 0.0085 | -0.135 ± 0.017 | 0 ± 0.0042 | -0.009 ± 0.0071 | -0.0175 ± 0.012 | 0.0155 ± 0.032 | -0.0015 ± 0.042 | -0.0095 ± 0.015
BE3C:IL-1alpha | -0.008 ± 0.013 | 0.0405 ± 0.042 | 0.0325 ± 0.005 | 0.042 ± 0.013 | 0.0695 ± 0.005 | -0.0075 ± 0.0078 | 0.0075 ± 0.026 | 0 ± 0.033 | 0.0145 ± 0.005 | -0.0135 ± 0.0021 | -0.0005 ± 0.0078 | -0.165 ± 0.021 | -0.0075 ± 0.0064 | -0.0125 ± 0.019 | -0.005 | 0.0085 ± 0.021 | 0.0045 ± 0.0092 | 0.024 ± 0.0057
BF4T:CCL2/MCP-1 | -0.008 ± 0.035 | 0.0195 ± 0.013 | -0.022 ± 0.011 | -0.049 ± 0.025 | -0.0785 ± 0.083 | -0.0135 ± 0.015 | -0.0245 ± 0.066 | 0.0095 ± 0.016 | 0.0045 ± 0.012 | -0.175 ± 0.031 | -0.095 ± 0.016 | -0.16 ± 0.052 | 0.0285 ± 0.015 | -0.011 ± 0.031 | -0.0235 ± 0.096 | 0.022 ± 0.05 | 0.0085 ± 0.057 | 0.009 ± 0.02
BF4T:CCL26/Eotaxin-3 | 0.002 ± 0.055 | -0.0155 ± 0.042 | -0.203 ± 0.005 | -0.199 ± 0.015 | -0.196 ± 0.047 | -0.0075 ± 0.0021 | -0.061 ± 0.0099 | -0.074 ± 0.0057 | -0.057 ± 0.059 | -0.241 ± 0.012 | -0.23 ± 0.018 | -0.231 ± 0.046 | -0.0305 ± 0.013 | -0.0615 ± 0.029 | -0.0695 ± 0.11 | 0.0025 ± 0.043 | -0.0005 ± 0.036 | 0.013 ± 0.028
BF4T:CD54/ICAM-1 | -0.0015 ± 0.016 | -0.0075 ± 0.0064 | 0.009 ± 0.024 | 0.013 ± 0.0085 | 0.028 ± 0.011 | -0.007 ± 0.018 | -0.0345 ± 0.0064 | -0.002 ± 0.0099 | 0.0175 ± 0.025 | -0.04 ± 0.0057 | -0.0335 ± 0.0035 | -0.0365 ± 0.005 | -0.0175 ± 0.018 | -0.0115 ± 0.0021 | -0.0075 ± 0.0092 | 0.0045 ± 0.0064 | 0.004 ± 0.014 | 0.006 ± 0.013
BF4T:CD90 | -0.0135 ± 0.0064 | -0.011 ± 0.0085 | -0.006 ± 0.0042 | -0.005 | -0.0065 ± 0.0078 | -0.0245 ± 0.021 | -0.0345 ± 0.0021 | -0.0125 ± 0.011 | -0.005 ± 0.0042 | -0.023 ± 0.0099 | -0.004 ± 0.0014 | 0.017 ± 0.0071 | -0.018 ± 0.011 | -0.019 ± 0.0014 | -0.02 ± 0.02 | -0.0045 ± 0.0035 | -0.0085 ± 0.012 | -0.0035 ± 0.015
BF4T:CD106/VCAM-1 | 0.015 ± 0.014 | 0.0105 ± 0.05 | -0.0235 ± 0.023 | -0.0335 ± 0.0092 | 0.0175 ± 0.071 | -0.027 ± 0.0085 | -0.061 ± 0.014 | -0.011 ± 0.014 | -0.037 ± 0.031 | -0.0965 ± 0.018 | -0.083 ± 0.0099 | -0.0925 ± 0.03 | -0.011 ± 0.024 | -0.03 ± 0.0057 | -0.007 ± 0.093 | -0.0065 ± 0.039 | -0.0035 ± 0.013 | 0.011 ± 0.031
BF4T:CXCL8/IL-8 | 0.011 ± 0.013 | 0.007 ± 0.0099 | -0.045 ± 0.03 | -0.034 ± 0.028 | -0.14 ± 0.03 | -0.0015 ± 0.018 | 0.011 ± 0.025 | 0.0325 ± 0.012 | 0.0275 ± 0.028 | 0.102 ± 0.0092 | 0.163 ± 0.011 | 0.171 ± 0.019 | 0.0095 ± 0.035 | 0.033 ± 0.047 | 0.0645 ± 0.043 | 0.016 ± 0.051 | 0.0355 ± 0.04 | 0.0205 ± 0.03
